Assay [1] relates to LTP in CaMKII T286A slices. The assay is described as follows: LTP induction in hippocampal slices from CaMKII T286A mutant mice. The format is cell-based, mouse. Conditions: 10 μM inhibitor.
The subject of assay [2] is LTP at the hippocampal CA3 to CA1 synapse. The assay is described as follows: LTP induction by HFS, field recordings in acute hippocampal slices of wildtype mice. The format is cell-based, mouse. Conditions: tatCN21 5 μM; AS283 10 or 30 μM; 15 minutes before, washed out 5 minutes after LTP induction. The method, then:
Long term potentiation (LTP) is induced by high frequency stimulation (HFS; 2×100 Hz. 10 sec interval, see Materials and Methods) of CA3-CA1 Schaffer collateral pathways in WT mice and is observed by an increase in slope of field excitatory post synaptic potentials (fEPSPs) that persists after the stimulus is removed. When testing the effect of certain agents on LTP induction (i.e., AS283 or tatCN21), slices were incubated with the agents for 15 minutes before LTP induction and washed out 5 minutes after LTP induction.
Hippocampal slice preparation. WT and mutant mouse hippocampal slices were prepared using P56-70 mice. Isoflurane anesthetized mice were rapidly decapitated, and the brain was dissected in ice-cold high sucrose solution containing 220 mM sucrose, 12 mM MgSO4, 10 mM glucose, 0.2 mM CaCl2), 0.5 mM KCl, 0.65 mM NaH2PO4, 13 mM
NaHCO3, and 1.8 mM ascorbate. […]
Extracellular field recordings. […] Data were analyzed using WinLTP software with slope calculated as the initial rise from 10 to 60% of response peak. […] Responses were recorded for 60 min after HFS. Change in slope was calculated as a ratio of the average slope of the 20 min baseline (before HFS). Bar graphs of % fEPSP slope were calculated by averaging the 50-60-minute timepoints post HFS and normalized to baseline.

The test system of assay [3] is CaMKIIα binding to GST-GluN2B-c. How it is done: In a series of exemplary methods, an in vitro kinase assay was used where purified CaMKIIα is incubated at 30° C. with GST-GluA1 alongside ATP. CaMKIIα normally phosphorylates S831 on the GluA1 subunit and this phosphorylation can be measured as a readout of CaMKIIα enzymatic activity (see e.g., FIG. 8B). […] In another exemplary method, binding of purified CaMKIIα to immobilized GST-GluN2B-c was induced by Ca^2+/CaM in the presence of a vehicle (none), 4 mM ADP or with […] AS105. […] At the same time, two exemplary methods were performed to observe ionomycin or chemical LTP (cLTP) induced co-localization of CaMKII and GluN2B either in HEK293 cells co-expressing GFP-CaMKII and mCherry-2BC or dissociated rat hippocampal cultures expressing GFP-CaMKII and mCh-PSD95 intrabody. HEK293 cells, incubating with vehicle or 10 μM AS105, were subjected to ionomycin. Hippocampal cultures, also incubating with either vehicle or 10 μM AS105, were treated with a chemical LTP (cLTP) stimulus (e.g., 100 μM glutamate, 10 μM glycine for 45 seconds). Confocal microscopy images were taken before and after each stimulus.
One possible mechanism by which AS283 could enhance GluN2B binding more than ATP is by suppressing CaMKII-mediated phosphorylation of GluN2B at S1303, as this phosphorylation within the CaMKII binding site on GluN2B reduces CaMKII binding.
Bound CaMKII was measured via immunoblot.

Assay [4] deals with paCaMKII F89G movement to synapses and spine growth. The assay can be described thus: Photoactivation of paCaMKII F89G in hippocampal neurons (structural LTP). Type of assay: cell-based. The following applies: NM-PP1 10 μM. From the text:
In this Example, two sets of pharmacogenetic tools were used in combination with the photoactivable paCaMKII to test whether structural CaMKII functions are not only the necessary but also the sufficient CaMKII functions in LTP. Specifically, in one exemplary method, hippocampal neurons were examined for sLTP (e.g., the LTP-associated growth of dendritic spines) in response to direct photoactivation of paCaMKII without any other stimulation that could trigger additional signaling pathways. […] In both cases, suppressing enzymatic CaMKII activity while allowing or enhancing GluN2B binding enabled induction of structural LTP.
paCaMKII stimulation in hippocampal neurons. […] Neurons were then imaged 15 minutes after stimulation and assessed for CaMKII synaptic enrichment and dendritic spine growth.
Image analysis of hippocampal neurons. […] 2D maximum intensity projection images were then generated and analyzed using a custom-build program in ImageJ. The program utilizes combinatorial thresholding to mask regions of the cell that contain high intensity PSD-95 puncta (the post-synaptic side of excitatory synapses in dendritic spines) and regions of the dendritic shaft that contain no fluorescence intensity of PSD-95. […] Spine growth was assessed by measuring the changes in mCherry cell fill fluorescence intensity within dendritic spine ROIs (F/F0).

The source of these data is US20260263429A1, “INHIBITORS OF CA 2+/CALMODULIN-DEPENDENT PROTEIN KINASE II (CAMKII) THAT DO NOT INHIBIT LONG-TERM POTENTIATION (LTP) INDUCTION AND THERAPEUTIC USES THEREOF” (The Regents of the University of Colorado, A Body Corporate, priority 2023, published 2026).

Each structure is given as a SMILES string.

On to `NCCNc1cccc(-c2ccnc3[nH]c4ccccc4c23)c1` [AS283], for which, in assay [1], the “LTP induction in slices from T286A mutant mice” value is listed as “enabled LTP”. Besides, the “LTP induction in wildtype mouse slices” value in assay [2] is recorded as “failed to block LTP induction”. Also, the “CaMKII binding to immobilized GluN2B compared to a control without nucleotide or inhibitor” value in assay [3] (10 μM inhibitor, EGTA wash, immunoblot) is “increased CaMKII binding”. In addition, the “CaMKII binding to GluN2B in the presence of ADP” value in assay [3] (1 mM ADP, AS283 10 μM) is “did not inhibit CaMKII binding to GluN2B”. Further, the “Ca2+/CaM-induced CaMKII binding to immobilized WT GluN2B when ATP was substituted” value in assay [3] (AS283 versus 1 mM ATP) was “significantly enhanced”. Moreover, in assay [3] (phosphorylation-incompetent GluN2B S1303A), the “enhancing effect on CaMKII binding to GluN2B S1303A mutant compared with ATP” value is on record as “indistinguishable”.

As for `CC(C)(C)n1nc(Cc2cccc3ccccc23)c2c(N)ncnc21` [NM-PP1], the “CaMKII movement after photoactivation of paCaMKII F89G” value in assay [4] is “enabled similar movement”.
